Data taken from patent US12600716B2 (Gannex Pharma Co., Ltd., priority 2020, dated 2026).

Assays:
human FXR protein = molecular target: T1, human FXR protein (Homo sapiens, UniProt Q96RI1); experiment: FXR agonist binding ability: time-resolved fluorescence (LanthaScreen) FXR/coactivator assay; type: biochemical; settings: GST-labeled human FXR, fluorescein-labeled coactivator, TR-FRET
T1 construct: purchased Invitrogen
Description: FXR Agonist Binding Ability Evaluation of the activation effect of the compound of the present invention with regard to the binding of FXR to its co-stimulatory factor SRC-1 was conducted by using time-resolved analytical techniques. Protein: glutathione-S-transferase (GST)-labeled human FXR protein (Invitrogen) • 2. Coactivator: Fluorescein-labeled steroid receptor coactivator (SRC2-2) (Invitrogen) • 3. Detection reagent: LanthaScreen Time-Resolved Fluorescence Analysis Kit (Invitrogen) • 1. The compound was prepared into a 10 mM DMSO stock solution and stored in a −20° C. refrigerator for a long time. • 2. The compound was diluted to 1 mM before the experiment, and then the compound was diluted 3-fold to 10 concentration points using DMSO. Then use buffer G (Invitrogen, PV4553) to dilute these 10 concentration points by 50 times to become a working fluid. Add 10 μl of each working solution to each well of a 384-well plate. • 3. Prepare a human FXR protein solution (final concentration 20 nM) in chilled buffer G and add 5 μl of human FXR protein solution to each well of a 384-well plate. • 4. Prepare a mix of buffer G containing 2 μM fluorescein-labeled steroid receptor coactivator and 20 nM GST antibody. • 5. Add 5 μl of the mixture prepared in Step 4 to a 384-well plate. • 6. Centrifuge the 384-well plate at 1000 g for 1 minute. • 7. Incubate for 1 hour at room temperature in the dark. • 8. Read the 384-well plate at 520 nm and 495 nm on an Envision 2104 plate reader. • 9. Calculate the EC50 value of the activation effect of the compound.

hFXR-LBD-GAL4 = molecular target: T2, hFXR-LBD-GAL4 (Homo sapiens, UniProt Q96RI1); experiment: FXR agonist transactivation ability: luciferase reporter gene in HEK293T; type: cell-based; settings: read-out: Cell activity
T2 construct: GAL4 (fusion partner); host or cells: HEK293T
T2 sequence (Q96RI1 262-486 limits assumed): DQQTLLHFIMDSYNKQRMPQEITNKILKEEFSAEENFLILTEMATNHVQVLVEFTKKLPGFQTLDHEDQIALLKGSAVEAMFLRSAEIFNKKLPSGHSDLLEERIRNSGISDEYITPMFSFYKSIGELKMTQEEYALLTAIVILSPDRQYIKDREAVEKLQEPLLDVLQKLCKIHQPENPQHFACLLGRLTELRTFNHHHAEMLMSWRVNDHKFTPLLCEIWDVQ
Description: FXR Agonist Transactivation Ability
Evaluation of the ability of the compound of the present invention to promote FXR transactivation was conducted by using luciferase reporter gene expression technology.
• 1. Cell line: HEK293T (Invitrogen) • 2. Expression plasmid: pBIND-hFXR-LBD-GAL4 (Promega), pGL4.35-luciferase (Promega) • 3. Cell culture medium: 10% serum and penicillin/streptomycin double antibody in DMEM medium • 4. Detection reagent: Steady-Glo fluorescence detection system (Promega). • 5. Transfection reagent: TransIT-293 Transfection Reagent (MIRUS BIO)
• 1. The compound was prepared into a 10 mM DMSO stock solution and stored in a −20° C. refrigerator for a long time. • 2. Resuscitation HEK293T cells were seeded in 10 cm culture dishes at a concentration of 5.5×10^6 and incubated for 16 hours at 37° C. in a 5% CO2 incubator. • 3. Return the transfection reagent to room temperature before transfection. The Trans-IT solution was added dropwise to Opti-MEM, and mixed by inversion for 5 minutes; the expression plasmid was added, mixed by inversion, and incubated at room temperature for 20 minutes. • 4. Add the transfection mixture from Step 3 to the prepared 10 cm dish in Step 2 and incubate for 5-6 hours in a 5% CO2 incubator. • 5. Dilute the compound 3 folds to 10 concentration points using DMSO; add 25 nl of compound per well in a 384-well plate using an Echo 550 sonic pipette; add HEK293T cells to the 384-well plate at a concentration of 15,000 cells/well; 37° C. incubate for 16-20 hours in a 5% CO2 incubator. • 6. Add 25 μl of Steady-Glo Fluorescent Reagent to each well and read the fluorescence on an Envision 2104 plate reader. • 7. Calculate the EC50 value of the activation of the compound.

Row | SMILES | EC50 (human FXR protein) [nM] | EC50 (hFXR-LBD-GAL4) [nM]
1 | O=C(O)c1ccc(Oc2ccc3cc(OCc4c(-c5c(Cl)cccc5Cl)noc4C4CC4)ccc3c2)nn1 [Compound 2, 6-((6-((5-cyclopropyl-3-(2,6-dichlorophenyl)isoxazol-4-yl)methoxy)naphthalen-2-yl)oxy)pyridazine-3-carboxylic acid] | 50 to 500 | > 1000
2 | O=C(NS(=O)(=O)C1CC1)c1ccc(Oc2ccc3cc(OCc4c(-c5c(Cl)cccc5Cl)noc4C4CC4)ccc3c2)nc1 [Compound 6, 6((6((5-cyclopropyl-3-(2,6-dichlorophenyl)isoxazol-4-yl)methoxy)naphthalen-2-yl)oxy)-N-(cyclopropylsulfonyl)nicotinamide] | 50 to 500 | > 1000
3 | O=C(O)c1cnc(Oc2ccc3cc(OCc4c(-c5c(Cl)cccc5Cl)noc4C4CC4)ccc3c2)cn1 [Compound 7, 5-((6-((5-cyclopropyl-3-(2,6-dichlorophenyl)isoxazol-4-yl)methoxy)naphthalen-2-yl)oxy)pyrazine-2-carboxylic acid] | > 500 | > 1000
4 | O=C(O)c1ccc(Oc2ccc3cc(OCc4c(-c5c(Cl)cccc5Cl)noc4C4CC4)ccc3c2)nc1Cl [Compound 8, 2-chloro-6-((6-((5-cyclopropyl-3-(2,6-dichlorophenyl)isoxazol-4-yl)methoxy)naphthalen-2-yl)oxy)nicotinic acid] | 50 to 500 | 500 to 1000
5 | O=C(O)c1ccc(Oc2ccc3cc(OCc4c(-c5c(Cl)cccc5Cl)noc4C4CC4)ccc3c2)cn1 [Compound 9, 5-((6-((5-cyclopropyl-3-(2,6-dichlorophenyl)isoxazol-4-yl)methoxy)naphthalen-2-yl)oxy)picolinic acid] | 50 to 500 | > 1000
6 | O=C(O)c1ncccc1Oc1ccc2cc(OCc3c(-c4c(Cl)cccc4Cl)noc3C3CC3)ccc2c1 [Compound 13, 3-((6-((5-cyclopropyl-3-(2,6-dichlorophenyl)isoxazol-4-yl)methoxy)naphthalen-2-yl)oxy)picolinic acid] | 50 to 500 | > 1000
7 | O=C(O)c1ccccc1Oc1ccc2cc(OCc3c(-c4c(Cl)cccc4Cl)noc3C3CC3)ccc2c1 [Compound 14, 2-((6-((5-cyclopropyl-3-(2,6-dichlorophenyl)isoxazol-4-yl)methoxy)naphthalen-2-yl)oxy)benzoic acid] | 50 to 500 | > 1000
8 | O=C(O)c1cccnc1Oc1ccc2cc(OCc3c(-c4c(Cl)cccc4Cl)noc3C3CC3)ccc2c1 [Compound 15, 2-((6-((5-cyclopropyl-3-(2,6-dichlorophenyl)isoxazol-4-yl)methoxy)naphthalen-2-yl)oxy)nicotinic acid] | 50 to 500 | > 1000
9 | COc1cc(Cl)c(-c2noc(C3CC3)c2COc2ccc3cc(Oc4ccc(C(=O)O)cn4)ccc3c2)c(Cl)c1 [Compound 19, 6-((6-((5-cyclopropyl-3-(2,6-dichloro-4-methoxyphenyl)isoxazol-4-yl)methoxy)naphthalen-2-yl)oxy)nicotinic acid] | > 500 | > 1000
10 | O=C(O)c1ncccc1Oc1cccc2cc(OCc3c(-c4c(Cl)cccc4Cl)noc3C3CC3)ccc12 [Compound 25, 3-((6-((5-cyclopropyl-3-(2,6-dichlorophenyl)isoxazol-4-yl)methoxy)naphthalen-1-yl)oxy)picolinic acid] | 50 to 500 | > 1000
11 | O=C(O)c1ccc(Oc2ccc3c(Cl)c(OCc4c(-c5c(Cl)cccc5Cl)noc4C4CC4)ccc3c2)nc1 [Compound 29, 6-((5-chloro-6-((5-cyclopropyl-3-(2,6-dichlorophenyl)-isoxazol-4-yl)methoxy)naphthalen-2-yl)oxy)nicotinic acid] | 50 to 500 | 500 to 1000
12 | O=C(O)c1ccc(Oc2c(F)ccc3cc(OCc4c(-c5c(Cl)cccc5Cl)noc4C4CC4)ccc23)nc1 [Compound 30, 6-((6-((5-cyclopropyl-3-(2,6-dichlorophenyl)isoxazol-4-yl)methoxy)-2-fluoronaphthalen-1-yl)oxy)nicotinic acid] | < 50 | < 200
13 | O=C(O)c1ccc(Oc2ccc3cc(OCc4c(-c5c(Cl)cccc5Cl)noc4C4CC4)ccc3c2)nc1 [Compound 33] | 50 to 500 | < 200
14 | O=C(O)c1ccc(Oc2ccc3c(OCc4c(-c5c(Cl)cccc5Cl)noc4C4CC4)cccc3c2)nc1 [Compound 36, 6-((5-((5-cyclopropyl-3-(2,6-dichlorophenyl)isoxazol-4-yl)methoxy)naphthalen-2-yl)oxy)nicotinic acid] | 50 to 500 | > 1000

Continued, values first:

Row | EC50 (human FXR protein) [nM] | EC50 (hFXR-LBD-GAL4) [nM] | SMILES
15 | > 500 | > 1000 | O=C(O)c1cnc(Oc2ccc3cc(OCc4c(-c5c(Cl)cccc5Cl)noc4C4CC4)ccc3c2)c(Cl)c1 [Compound 3, 5-chloro-6-((6-((5-cyclopropyl-3-(2,6-dichlorophenyl)isoxazol-4-yl)methoxy)naphthalen-2-yl)oxy)nicotinic acid]
16 | 50 to 500 | > 1000 | O=C(O)c1cnc(Oc2ccc3cc(OCc4c(-c5c(Cl)cccc5Cl)noc4C4CC4)ccc3c2)s1 [Compound 4, 2-((6-((5-cyclopropyl-3-(2,6-dichlorophenyl)isoxazol-4-yl)methoxy)naphthalen-2-yl)oxy)thiazole-5-carboxylic acid]
17 | > 500 | > 1000 | Cc1cc(C(=O)O)cnc1Oc1ccc2cc(OCc3c(-c4c(Cl)cccc4Cl)noc3C3CC3)ccc2c1 [Compound 5, 6-((6-((5-cyclopropyl-3-(2,6-dichlorophenyl)isoxazol-4-yl)methoxy)naphthalen-2-yl)oxy)-5-methylnicotinic acid]
18 | < 50 | > 1000 | O=C(O)c1ccnc(Oc2ccc3cc(OCc4c(-c5c(Cl)cccc5Cl)noc4C4CC4)ccc3c2)c1 [Compound 12, 2-((6-((5-cyclopropyl-3-(2,6-dichlorophenyl)isoxazol-4-yl)methoxy)naphthalen-2-yl)oxy)isonicotinic acid]
19 | < 50 | > 1000 | O=C(O)c1ccncc1Oc1ccc2cc(OCc3c(-c4c(Cl)cccc4Cl)noc3C3CC3)ccc2c1 [Compound 16, 3-((6-((5-cyclopropyl-3-(2,6-dichlorophenyl)isoxazol-4-yl)methoxy)naphthalen-2-yl)oxy)isonicotinic acid]
20 | > 500 | > 1000 | O=C(O)c1ccc(Oc2ccc3cc(OCc4c(-c5ccccc5OC(F)(F)F)noc4C4CC4)ccc3c2)nc1 [Compound 17]
21 | 50 to 500 | > 1000 | O=C(O)c1ccc(Oc2ccc3cc(OCc4c(-c5c(Cl)cc(F)cc5Cl)noc4C4CC4)ccc3c2)nc1 [Compound 18]
22 | 50 to 500 | 500 to 1000 | O=C(O)c1ccc(Oc2ccc3cc(OCc4c(-c5c(Cl)cccc5Cl)noc4C4CC4)ccc3c2F)nc1 [Compound 20, 6-((6-((5-cyclopropyl-3-(2,6-dichlorophenyl)isoxazol-4-yl)methoxy)-1-fluoronaphthalen-2-yl)oxy)nicotinic acid]
23 | > 500 | > 1000 | O=C(O)c1cccc(Oc2cccc3cc(OCc4c(-c5c(Cl)cccc5Cl)noc4C4CC4)ccc23)n1 [Compound 23, 6-((6-((5-cyclopropyl-3-(2,6-dichlorophenyl)isoxazol-4-yl)methoxy)naphthalen-1-yl)oxy)picolinic acid]
24 | < 50 | < 200 | O=C(O)c1cccnc1Oc1cccc2cc(OCc3c(-c4c(Cl)cccc4Cl)noc3C3CC3)ccc12 [Compound 35, 2-((6((5-cyclopropyl-3-(2,6-dichlorophenyl)isoxazol-4-yl)methoxy)naphthalen-1-yl)oxy)nicotinic acid]
